Columns and labels:
[1] = system: chickweed; experiment: Test Example 4: herbicidal effect by soil treatment (Table 19, symbol P); assay type: in vivo, common chickweed (Stellaria media)
Method in brief: (§1)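 Pre-emergence style soil spray: seeds under ~1.5 cm sterilized diluvial soil received a uniform coat of emulsion diluted to the predetermined herbicide amount. Greenhouse 25–30° C; readout at week three on previously defined criteria.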

[2] = system: lambsquarters; experiment: Test Example 4: herbicidal effect by soil treatment (Table 19, symbol O); assay type: in vivo, lambsquarters (Chenopodium album)
Method in brief: as §1

[3] = system: barnyard grass; experiment: Test Example 3: herbicidal effect by foliage application, Wagner pot (Table 18, symbol H); assay type: in vivo, barnyard grass (Echinochloa crus-galli)
Method in brief: (§2)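 Plants were sown in alluvial soil held under 0.1–0.5 cm standing water and grown 14 days in a greenhouse at 25–30 °C. An emulsifiable formulation, water-diluted to the set dose, was then sprayed onto the foliage, and effects were scored three weeks later using previously defined criteria.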

[4] = system: southern crabgrass; experiment: Test Example 5: herbicidal effect by foliage application, plastic box (Table 20, symbol F); assay type: in vivo, southern crabgrass (Digitaria ciliaris); conditions: foliage application, 3 weeks after application
Method in brief: (§3)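 Plants were sown into sterilized diluvial soil under about 1.5 cm cover and kept in a greenhouse at 25° C. to 30° C. Fourteen days on, foliage received an even spray of the diluted emulsion. Herbicidal or crop effect was judged three weeks afterwards.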

[5] = system: persian speedwell; experiment: Test Example 4: herbicidal effect by soil treatment (Table 19, symbol R); assay type: in vivo, Persian speedwell (Veronica persica)
Method in brief: as §1

[6] = system: Japanese bulrush; experiment: Test Example 1: herbicidal activity, application before weed generation under submerged conditions (Table 16, symbol B); assay type: in vivo, Japanese bulrush (Schoenoplectus juncoides)
Method in brief: (§4)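 Submerged Wagner pots (alluvial soil, 4 cm water) sown with weed seeds and planted with 2.5-leaf rice seedlings; emulsifiable concentrate diluted in water applied to water surface on sowing day. Held in greenhouse at 25-30 °C; injury scored 0-5 by herbicidal rate after three weeks.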

[7] = system: late watergrass; experiment: Test Example 1: herbicidal activity, application before weed generation under submerged conditions (Table 16, symbol A); assay type: in vivo, late watergrass (Echinochloa oryzicola)
Method in brief: as §4

[8] = system: oval-leafed pondweed; experiment: Test Example 1: herbicidal activity, application before weed generation under submerged conditions (Table 16, symbol C); assay type: in vivo, oval-leafed pondweed (Monochoria vaginalis)
Method in brief: as §4

[9] = system: velvetleaf; experiment: Test Example 5: herbicidal effect by foliage application, plastic box (Table 20, symbol M); assay type: in vivo, velvetleaf (Abutilon theophrasti); conditions: foliage application, 3 weeks after application
Method in brief: as §3

[10] = system: Italian ryegrass; experiment: Test Example 4: herbicidal effect by soil treatment (Table 19, symbol K); assay type: in vivo, Italian ryegrass (Lolium multiflorum)
Method in brief: as §1

[11] = system: Chinese sprangletop; experiment: Test Example 3: herbicidal effect by foliage application, Wagner pot (Table 18, symbol D); assay type: in vivo, chinese sprangletop (Leptochloa chinensis)
Method in brief: as §2

[12] = system: blackgrass; experiment: Test Example 5: herbicidal effect by foliage application, plastic box (Table 20, symbol J); assay type: in vivo, blackgrass (Alopecurus myosuroides); conditions: foliage application, 3 weeks after application
Method in brief: as §3

[13] = system: rice flat sedge; experiment: Test Example 3: herbicidal effect by foliage application, Wagner pot (Table 18, symbol E); assay type: in vivo, rice flat sedge (Cyperus iria)
Method in brief: as §2

[14] = system: wild oat; experiment: Test Example 5: herbicidal effect by foliage application, plastic box (Table 20, symbol I); assay type: in vivo, wild oat (Avena fatua); conditions: foliage application, 3 weeks after application
Method in brief: as §3

[15] = system: windgrass; experiment: Test Example 4: herbicidal effect by soil treatment (Table 19, symbol L); assay type: in vivo, windgrass (Apera spica-venti)
Method in brief: as §1

[16] = system: windgrass; experiment: Test Example 5: herbicidal effect by foliage application, plastic box (Table 20, symbol L); assay type: in vivo, windgrass (Apera spica-venti); conditions: foliage application, 3 weeks after application
Method in brief: as §3

[17] = system: barnyard grass; experiment: Test Example 5: herbicidal effect by foliage application, plastic box (Table 20, symbol H); assay type: in vivo, barnyard grass (Echinochloa crus-galli); conditions: foliage application, 3 weeks after application
Method in brief: as §3

Row | Structure (SMILES) | herbicidal effect rating, P: chickweed ([1]; 320 g/ha) | herbicidal effect rating, O: lambsquarters ([2]; 320 g/ha) | herbicidal effect on H (barnyard grass), rating 0-5 ([3]; 320 g/ha) | effect on southern crabgrass (F) ([4]; 320 g/ha) | herbicidal effect rating, R: persian speedwell ([5]; 320 g/ha) | Herbicidal effect on B: Japanese bulrush (grade 0-5) ([6]; 320 g/ha applied herbicide) | Herbicidal effect on A: late watergrass (grade 0-5) ([7]; 320 g/ha applied herbicide) | Herbicidal effect on C: oval-leafed pondweed (grade 0-5) ([8]; 320 g/ha applied herbicide) | effect on velvetleaf (M) ([9]; 320 g/ha) | herbicidal effect rating, K: Italian ryegrass ([10]; 320 g/ha) | herbicidal effect on D (Chinese sprangletop), rating 0-5 ([11]; 320 g/ha) | effect on blackgrass (J) ([12]; 320 g/ha) | herbicidal effect on E (rice flat sedge), rating 0-5 ([13]; 320 g/ha) | effect on wild oat (I) ([14]; 320 g/ha) | herbicidal effect rating, L: windgrass ([15]; 320 g/ha) | effect on windgrass (L) ([16]; 320 g/ha) | effect on barnyard grass (H) ([17]; 320 g/ha) | also measured
1 | Cc1ccc(-c2sc3ccc(F)cc3c2-c2c(O)c(C)nn(C)c2=O)cc1 [2-012] | 4 (Herbicidal rate of 70% or more and less than 90%) | 5 (Herbicidal rate of 90% or more (almost completely withered)) | 5 (Herbicidal rate of 90% or more (almost completely withered)) | 5 (Herbicidal rate of 90% or more (almost completely withered)) | 5 (Herbicidal rate of 90% or more (almost completely withered)) | 0 (Herbicidal rate of 5% or less (almost no effect)) | 3 (Herbicidal rate of 40% or more and less than 70%) | 0 (Herbicidal rate of 5% or less (almost no effect)) | 5 (Herbicidal rate of 90% or more (almost completely withered)) | 4 (Herbicidal rate of 70% or more and less than 90%) | 5 (Herbicidal rate of 90% or more (almost completely withered)) | 4 (Herbicidal rate of 70% or more and less than 90%) | 5 (Herbicidal rate of 90% or more (almost completely withered)) | 0 (Herbicidal rate of 5% or less (almost no effect)) | 0 (Herbicidal rate of 5% or less (almost no effect)) | 4 (Herbicidal rate of 70% or more and less than 90%) | 4 (Herbicidal rate of 70% or more and less than 90%) | –
2 | CCCC(=O)Oc1c(C)nn(C)c(=O)c1-c1c(-c2ccc(C)cc2)sc2ccc(F)cc12 [2-013] | 3 (Herbicidal rate of 40% or more and less than 70%) | 5 (Herbicidal rate of 90% or more (almost completely withered)) | 5 (Herbicidal rate of 90% or more (almost completely withered)) | 5 (Herbicidal rate of 90% or more (almost completely withered)) | 4 (Herbicidal rate of 70% or more and less than 90%) | 2 (Herbicidal rate of 20% or more and less than 40%) | 3 (Herbicidal rate of 40% or more and less than 70%) | 2 (Herbicidal rate of 20% or more and less than 40%) | 5 (Herbicidal rate of 90% or more (almost completely withered)) | 4 (Herbicidal rate of 70% or more and less than 90%) | 5 (Herbicidal rate of 90% or more (almost completely withered)) | 1 (Herbicidal rate of 5% or more and less than 20%) | 5 (Herbicidal rate of 90% or more (almost completely withered)) | 0 (Herbicidal rate of 5% or less (almost no effect)) | 0 (Herbicidal rate of 5% or less (almost no effect)) | 3 (Herbicidal rate of 40% or more and less than 70%) | 5 (Herbicidal rate of 90% or more (almost completely withered)) | –
3 | COc1ccc(-c2sc3ccc(F)cc3c2-c2c(O)c(C)nn(C)c2=O)cc1 [2-026] | 4 (Herbicidal rate of 70% or more and less than 90%) | 5 (Herbicidal rate of 90% or more (almost completely withered)) | 5 (Herbicidal rate of 90% or more (almost completely withered)) | 5 (Herbicidal rate of 90% or more (almost completely withered)) | 5 (Herbicidal rate of 90% or more (almost completely withered)) | 4 (Herbicidal rate of 70% or more and less than 90%) | 3 (Herbicidal rate of 40% or more and less than 70%) | 4 (Herbicidal rate of 70% or more and less than 90%) | 5 (Herbicidal rate of 90% or more (almost completely withered)) | 3 (Herbicidal rate of 40% or more and less than 70%) | 4 (Herbicidal rate of 70% or more and less than 90%) | 4 (Herbicidal rate of 70% or more and less than 90%) | 5 (Herbicidal rate of 90% or more (almost completely withered)) | 5 (Herbicidal rate of 90% or more (almost completely withered)) | 1 (Herbicidal rate of 5% or more and less than 20%) | 4 (Herbicidal rate of 70% or more and less than 90%) | 5 (Herbicidal rate of 90% or more (almost completely withered)) | –
4 | CCCC(=O)Oc1c(C)nn(C)c(=O)c1-c1c(-c2ccccc2OCC)sc2ccc(F)cc12 [2-029] | – | – | – | – | – | – | – | – | – | – | – | – | – | – | – | – | – | herbicidal effect rating, P: chickweed ([1]; 266 g/ha): 3 (Herbicidal rate of 40% or more and less than 70%); herbicidal effect rating, O: lambsquarters ([2]; 266 g/ha): 4 (Herbicidal rate of 70% or more and less than 90%); herbicidal effect on H (barnyard grass), rating 0-5 ([3]; 266 g/ha): 5 (Herbicidal rate of 90% or more (almost completely withered)); effect on southern crabgrass (F) ([4]; 266 g/ha): 4 (Herbicidal rate of 70% or more and less than 90%); herbicidal effect rating, R: persian speedwell ([5]; 266 g/ha): 3 (Herbicidal rate of 40% or more and less than 70%); Herbicidal effect on B: Japanese bulrush (grade 0-5) ([6]; 266 g/ha applied herbicide): 0 (Herbicidal rate of 5% or less (almost no effect)); Herbicidal effect on A: late watergrass (grade 0-5) ([7]; 266 g/ha applied herbicide): 2 (Herbicidal rate of 20% or more and less than 40%); Herbicidal effect on C: oval-leafed pondweed (grade 0-5) ([8]; 266 g/ha applied herbicide): 0 (Herbicidal rate of 5% or less (almost no effect)); effect on velvetleaf (M) ([9]; 266 g/ha): 5 (Herbicidal rate of 90% or more (almost completely withered)); herbicidal effect rating, K: Italian ryegrass ([10]; 266 g/ha): 0 (Herbicidal rate of 5% or less (almost no effect)); herbicidal effect on D (Chinese sprangletop), rating 0-5 ([11]; 266 g/ha): 3 (Herbicidal rate of 40% or more and less than 70%); effect on blackgrass (J) ([12]; 266 g/ha): 1 (Herbicidal rate of 5% or more and less than 20%); herbicidal effect on E (rice flat sedge), rating 0-5 ([13]; 266 g/ha): 3 (Herbicidal rate of 40% or more and less than 70%); effect on wild oat (I) ([14]; 266 g/ha): 3 (Herbicidal rate of 40% or more and less than 70%); herbicidal effect rating, L: windgrass ([15]; 266 g/ha): 0 (Herbicidal rate of 5% or less (almost no effect)); effect on windgrass (L) ([16]; 266 g/ha): 1 (Herbicidal rate of 5% or more and less than 20%); effect on barnyard grass (H) ([17]; 266 g/ha): 5 (Herbicidal rate of 90% or more (almost completely withered))

— patent publication US20230085307A1, “PYRIDAZINONE COMPOUND AND HERBICIDE” (NISSAN CHEMICAL CORPORATION, priority 2019, published 2023)
